Laboratory results taken from patent publication US20060069132A1, “Azolecarboxamide herbicides” (priority 2004, published 2006).

What was measured:
rice = test: Test B flooded paddy test; assay type: in vivo, Oryza sativa; settings: 1000 g ai/ha, visual rating, scale 0 to 100 (0 no effect, 100 complete control), 13 to 15 days
In short: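 Each value is a visual 0–100 response rating taken against controls 13 to 15 days after treatment in the greenhouse. Plants received formulated chemical postemergence at the 1- to 4-leaf stage or, in flooded paddy, at the 2-leaf stage.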

wheat = test: Test B postemergence herbicide test; assay type: in vivo, Triticum aestivum; design: key to Wheat plant response rating: 0 = no effect, 100 = complete control; settings: postemergence, visual rating, scale 0 (no effect) to 100 (complete control)
In short: (§1)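 Scale 0–100: zero equals no visible effect, 100 complete control, judged by eye relative to controls. Timing: 13 to 15 days in greenhouse post-treatment. Growth stage at spraying: two leaves (paddy) or one to four leaves, 2–18 cm (postemergence).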

giant foxtail = test: Test B pre-/postemergence herbicide test; assay type: in vivo, Setaria faberi; settings: for Foxtail, Giant plant response rating (0 to 100 scale): 0 = no effect, 100 = complete control; for Foxtail, Giant plant response rating (0 to 100 scale) / Plant response rating, Foxtail, Giant: preemergence; for Plant response rating, Foxtail, Giant: visual rating 0-100, 0 no effect, 100 complete control; for Foxtail, Giant plant response rating: postemergence, visual rating, scale 0 (no effect) to 100 (complete control)
In short: (§2)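 Evaluation is visual, comparing treated with control plants on a scale where 0 means no effect and 100 means full control. Treatments were preemergence, or postemergence on seedlings 2–18 cm tall, and held 13–15 days in the greenhouse.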

[1] = test system: small flower umbrella sedge; test: Test B flooded paddy test; assay type: in vivo, Cyperus difformis; settings: 1000 g ai/ha, visual rating, scale 0 to 100 (0 no effect, 100 complete control), 13 to 15 days
In short: (§3)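 Postemergence plants were sprayed with formulated test chemicals at 2 to 18 cm height (1- to 4-leaf stage); paddy species were grown to the 2-leaf stage. After 13 to 15 days in a greenhouse, injury was rated visually against untreated controls on a 0–100 scale (0 = no effect, 100 = complete control).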

barnyardgrass = test: Test B flooded paddy test; assay type: in vivo, Echinochloa crus-galli; settings: 1000 g ai/ha, visual rating, scale 0 to 100 (0 no effect, 100 complete control), 13 to 15 days
In short: as §3

wild oat = test: Test B postemergence herbicide test; assay type: in vivo, Avena fatua; settings: postemergence, visual rating, scale 0 (no effect) to 100 (complete control)
In short: as §1

blackgrass = test: Test B postemergence herbicide test; assay type: in vivo, Alopecurus myosuroides; settings: postemergence, visual rating, scale 0 (no effect) to 100 (complete control)
In short: as §3

corn = test: Test B pre-/postemergence herbicide test; assay type: in vivo, Zea mays; settings: for Corn plant response rating (0 to 100 scale): 0 = no effect, 100 = complete control; for Corn plant response rating (0 to 100 scale) / Plant response rating, Corn: preemergence; for Plant response rating, Corn: visual rating 0-100, 0 no effect, 100 complete control; for Corn plant response rating: postemergence, visual rating, scale 0 (no effect) to 100 (complete control)
In short: as §2

morningglory = test: Test B pre-/postemergence herbicide test; assay type: in vivo, Ipomoea coccinea; settings: for Morningglory plant response rating (0 to 100 scale): 0 = no effect, 100 = complete control; for Morningglory plant response rating (0 to 100 scale) / Plant response rating, Morningglory: preemergence; for Plant response rating, Morningglory: visual rating 0-100, 0 no effect, 100 complete control; for Morningglory plant response rating: postemergence, visual rating, scale 0 (no effect) to 100 (complete control)
In short: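 Seeds were planted and treated preemergence with compounds formulated in a non-phytotoxic solvent mixture containing surfactant, while plants at the 1- to 4-leaf stage (2 to 18 cm) received postemergence sprays. Flooded paddy plants were grown to the 2-leaf stage. After 13 to 15 days in a greenhouse, injury was visually rated 0–100 against untreated controls.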

ducksalad = test: Test B flooded paddy test; assay type: in vivo, Heteranthera limosa; settings: 1000 g ai/ha, visual rating, scale 0 to 100 (0 no effect, 100 complete control), 13 to 15 days
In short: as §3

lambsquarters = test: Test B pre-/postemergence herbicide test; assay type: in vivo, Chenopodium album; settings: for Lambsquarters plant response rating (0 to 100 scale): 0 = no effect, 100 = complete control; for Lambsquarters plant response rating (0 to 100 scale) / Plant response rating, Lambsquarters: preemergence; for Plant response rating, Lambsquarters: visual rating 0-100, 0 no effect, 100 complete control; for Lambsquarters plant response rating: postemergence, visual rating, scale 0 (no effect) to 100 (complete control)
In short: as §2

large crabgrass = test: Test B pre-/postemergence herbicide test; assay type: in vivo, Digitaria sanguinalis; settings: for Crabgrass, Large plant response rating (0 to 100 scale): 0 = no effect, 100 = complete control; for Crabgrass, Large plant response rating (0 to 100 scale) / Plant response rating, Crabgrass, Large: preemergence; for Plant response rating, Crabgrass, Large: visual rating 0-100, 0 no effect, 100 complete control; for Crabgrass, Large plant response rating: postemergence, visual rating, scale 0 (no effect) to 100 (complete control)
In short: as §2

pigweed = test: Test B pre-/postemergence herbicide test; assay type: in vivo, Amaranthus retroflexus; settings: for Pigweed plant response rating (0 to 100 scale): 0 = no effect, 100 = complete control; for Pigweed plant response rating (0 to 100 scale) / Plant response rating, Pigweed: preemergence; for Plant response rating, Pigweed: visual rating 0-100, 0 no effect, 100 complete control; for Pigweed plant response rating: postemergence, visual rating, scale 0 (no effect) to 100 (complete control)
In short: as §2

velvetleaf = test: Test B pre-/postemergence herbicide test; assay type: in vivo, Abutilon theophrasti; settings: for Velvetleaf plant response rating (0 to 100 scale): 0 = no effect, 100 = complete control; for Velvetleaf plant response rating (0 to 100 scale) / Plant response rating, Velvetleaf: preemergence; for Plant response rating, Velvetleaf: visual rating 0-100, 0 no effect, 100 complete control; for Velvetleaf plant response rating: postemergence, visual rating, scale 0 (no effect) to 100 (complete control)
In short: as §2

Surinam grass = test: Test B pre-/postemergence herbicide test; assay type: in vivo, Urochloa decumbens; settings: for Surinam Grass plant response rating (0 to 100 scale): 0 = no effect, 100 = complete control; for Surinam Grass plant response rating (0 to 100 scale) / Plant response rating, Surinam Grass: preemergence; for Plant response rating, Surinam Grass: visual rating 0-100, 0 no effect, 100 complete control; for Surinam Grass plant response rating: postemergence, visual rating, scale 0 (no effect) to 100 (complete control)
In short: as §2

## CCc1nc(C(C)(C)C)sc1C(=O)Nc1cccc(C(=O)N(CC)CC)c1 [Compound 205]
rice
  Rice plant response rating: 60
wheat; 125 g ai/ha
  Wheat plant response rating: 10
wheat; 500 g ai/ha
  Wheat plant response rating: 20
Giant foxtail; 125 g ai/ha
  Foxtail, Giant plant response rating (0 to 100 scale): 50
  Foxtail, Giant plant response rating: 20
Giant foxtail; 500 g ai/ha
  Plant response rating, Foxtail, Giant: 100
  Foxtail, Giant plant response rating: 30
[1]
  Sedge, Umbrella plant response rating: 60
barnyardgrass
  Barnyardgrass plant response rating: 70
Wild oat; 125 g ai/ha
  Oat, Wild plant response rating: 20
Wild oat; 500 g ai/ha
  Oat, Wild plant response rating: 30
blackgrass; 125 g ai/ha
  Blackgrass plant response rating: 0
blackgrass; 500 g ai/ha
  Blackgrass plant response rating: 20
corn; 125 g ai/ha
  Corn plant response rating (0 to 100 scale): 10
  Corn plant response rating: 20
corn; 500 g ai/ha
  Plant response rating, Corn: 40
  Corn plant response rating: 20
morningglory; 125 g ai/ha
  Morningglory plant response rating (0 to 100 scale): 0
  Morningglory plant response rating: 30
morningglory; 500 g ai/ha
  Plant response rating, Morningglory: 30
  Morningglory plant response rating: 50
ducksalad
  Ducksalad plant response rating: 50
lambsquarters; 125 g ai/ha
  Lambsquarters plant response rating (0 to 100 scale): 80
  Lambsquarters plant response rating: 60
lambsquarters; 500 g ai/ha
  Plant response rating, Lambsquarters: 100
  Lambsquarters plant response rating: 70
Large crabgrass; 125 g ai/ha
  Crabgrass, Large plant response rating (0 to 100 scale): 60
  Crabgrass, Large plant response rating: 10
Large crabgrass; 500 g ai/ha
  Plant response rating, Crabgrass, Large: 90
  Crabgrass, Large plant response rating: 20
pigweed; 125 g ai/ha
  Pigweed plant response rating (0 to 100 scale): 100
  Pigweed plant response rating: 40
pigweed; 500 g ai/ha
  Plant response rating, Pigweed: 100
  Pigweed plant response rating: 50
velvetleaf; 125 g ai/ha
  Velvetleaf plant response rating (0 to 100 scale): 30
  Velvetleaf plant response rating: 20
velvetleaf; 500 g ai/ha
  Plant response rating, Velvetleaf: 80
  Velvetleaf plant response rating: 40
Surinam grass; 125 g ai/ha
  Surinam Grass plant response rating (0 to 100 scale): 20
  Surinam Grass plant response rating: 20
Surinam grass; 500 g ai/ha
  Plant response rating, Surinam Grass: 80
  Surinam Grass plant response rating: 20

## CCc1nc(C(C)(C)C)sc1C(=O)Nc1cccc(C(=O)NCCF)c1 [Compound 209]
rice
  Rice plant response rating: 50
wheat; 125 g ai/ha
  Wheat plant response rating: 10
wheat; 500 g ai/ha
  Wheat plant response rating: 20
Giant foxtail; 125 g ai/ha
  Foxtail, Giant plant response rating (0 to 100 scale): 30
  Foxtail, Giant plant response rating: 20
Giant foxtail; 500 g ai/ha
  Plant response rating, Foxtail, Giant: 60
  Foxtail, Giant plant response rating: 30
[1]
  Sedge, Umbrella plant response rating: 90
barnyardgrass
  Barnyardgrass plant response rating: 60
Wild oat; 125 g ai/ha
  Oat, Wild plant response rating: 20
Wild oat; 500 g ai/ha
  Oat, Wild plant response rating: 20
blackgrass; 125 g ai/ha
  Blackgrass plant response rating: 0
blackgrass; 500 g ai/ha
  Blackgrass plant response rating: 20
corn; 125 g ai/ha
  Corn plant response rating (0 to 100 scale): 0
  Corn plant response rating: 20
corn; 500 g ai/ha
  Plant response rating, Corn: 50
  Corn plant response rating: 30
morningglory; 125 g ai/ha
  Morningglory plant response rating (0 to 100 scale): 10
  Morningglory plant response rating: 20
morningglory; 500 g ai/ha
  Plant response rating, Morningglory: 20
  Morningglory plant response rating: 20
ducksalad
  Ducksalad plant response rating: 80
lambsquarters; 125 g ai/ha
  Lambsquarters plant response rating (0 to 100 scale): 60
  Lambsquarters plant response rating: 40
lambsquarters; 500 g ai/ha
  Plant response rating, Lambsquarters: 100
  Lambsquarters plant response rating: 40
Large crabgrass; 125 g ai/ha
  Crabgrass, Large plant response rating (0 to 100 scale): 40
  Crabgrass, Large plant response rating: 20
Large crabgrass; 500 g ai/ha
  Plant response rating, Crabgrass, Large: 60
  Crabgrass, Large plant response rating: 20
pigweed; 125 g ai/ha
  Pigweed plant response rating (0 to 100 scale): 70
  Pigweed plant response rating: 30
pigweed; 500 g ai/ha
  Plant response rating, Pigweed: 100
  Pigweed plant response rating: 40
velvetleaf; 125 g ai/ha
  Velvetleaf plant response rating (0 to 100 scale): 10
  Velvetleaf plant response rating: 20
velvetleaf; 500 g ai/ha
  Plant response rating, Velvetleaf: 50
  Velvetleaf plant response rating: 20
Surinam grass; 125 g ai/ha
  Surinam Grass plant response rating (0 to 100 scale): 20
  Surinam Grass plant response rating: 20
Surinam grass; 500 g ai/ha
  Plant response rating, Surinam Grass: 50
  Surinam Grass plant response rating: 20
